Source: patent US20160109352A1, “METHODS AND APPARATUS FOR HIGH-THROUGHPUT LABEL-FREE CELL ASSAY” (INDUSTRY-ACADEMIC COOPERATION FOUNDATION YONSEI UNIVERSITY, priority 2014, published 2016)

Test system: cells
Test: label-free cell assay by optical interference phase microscope
Type: cell-based
Details: for change in measurement values (phase) depending on concentration, by time: dosed in different concentration, measured by time (FIG. 5)
Text: FIG. 4 is a view showing an example of an image of cells photographed by an optical interference phase microscope beneath the transparent medium of the high-throughput label-free cell assay system.
FIG. 5 is a view showing an example of a measurement value by time in the high-throughput label-free cell assay system in a case that picolinic acid and histamine are separately given to cells in different concentration.

SMILES	change in measurement values (phase) depending on concentration, by time	number of observed cells in optical interference phase image (half an hour after dosing, untreated cells showed no change after 30 minutes)
NCCc1c[nH]cn1 [histamine]	remarkable changes in measurement values depending on concentration were observed	–
O=C(O)c1ccccn1 [picolinic acid]	remarkable changes in measurement values depending on concentration were observed	remarkably reduced
